The structures appear in SMILES notation.

Series [1] has as its system aged cats with chronic kidney disease (CKD), IRIS stage 1-3. In words: Retrospective case-controlled study: long-term meloxicam in aged cats with CKD (Group A) vs age and IRIS matched untreated controls (Group C). It counts as in vivo, cat.
Protocol: The diagnosis of osteoarthritis or spondylosis deformans had been made based upon any two of the following: owner noted mobility changes, physical examination findings or radiographic changes. […] In addition, cats were only included if serum biochemistry, urine analysis and body weight had been regularly monitored. […]
In house urine specific gravity was determined with a Reichert Vet360 refractometer. Urine specific gravity was regularly compared to that measured by the same reference laboratory. […]
The subject of series [2] is aged cats without chronic kidney disease (no-CKD). In words: Retrospective case-controlled study: long-term meloxicam in aged cats without CKD (Group B) vs age matched untreated controls (Group D). It counts as in vivo, cat. From the text: The medical records of a feline-only practice were searched for cats with OA being treated with meloxicam during a 4 year period. A diagnosis of OA was based upon any two of the following: owner noted mobility changes and/or physical examination findings or radiographic changes. Cats included were older than 7 years and treated with meloxicam for a duration of more than 6 months. Biochemistry, urinalysis and body weight were regularly monitored. The progression of renal disease in the aged non-renal and renal group treated was compared to age matched and IRIS matched untreated controls from the same clinic. IRIS staging of CKD follows specific guidelines on the diagnosis and assessment of progression of renal disease in small animals as described below. Animals are being divided into […] categories according to the stage of their disease, see Table 1 (iris-kidney.com).
The database of a feline-only practice in suburban Melbourne was searched for cats which had been treated for chronic musculoskeletal diseases with meloxicam (Metacam® oral suspension, Boehringer Ingelheim) during a 4 year period. The diagnosis of osteoarthritis or spondylosis deformans had been made based upon any two of the following: owner noted mobility changes, physical examination findings or radiographic changes. The inclusion criteria included cats greater than 7 years old which had been treated continuously with meloxicam for a duration of more than 6 months and which had complete medical records available for review. In addition, cats were only included if serum biochemistry, urine analysis and body weight had been regularly monitored.
Young cats were excluded, as were cats with no pre-treatment renal parameter measurements. In addition cats were also excluded if the owner could not be contacted to check that the cats were still receiving daily treatment with meloxicam.
Age, breed, sex, concomitant diseases and medications as well as date treatment commenced, treatment duration and daily dose of meloxicam were recorded.
The majority of serum biochemistry determination was via external reference laboratory (Normal Range: Creatinine 0.08-0.20 mmol/L) and the remainder with an in-house IDEXX biochemistry and electrolyte machine (Normal Range: Creatinine 71-212 umol/L). In house urine specific gravity was determined with a Reichert Vet360 refractometer. Urine specific gravity was regularly compared to that measured by the same reference laboratory. Urine sediment examination and dipstick determination was carried out in-house with necessary urine cultures and urine protein. Urine creatinine determination was carried out at the same reference laboratory. […]
The median age of the renal and non-renal treated cats, median treatment duration and median maintenance dose was calculated. […]

As to `Cc1cnc(NC(=O)C2=C(O)c3ccccc3S(=O)(=O)N2C)s1` [meloxicam], the “differences from baseline in body weight” value in series [1] (CKD-meloxicam group (A) vs age and IRIS matched untreated CKD group (C), time adjusted AUC, Wilcoxon rank-sum-test) is listed as “no statistically significant differences”; in series [2] (no-CKD meloxicam group (B) vs untreated no-CKD group (D), time adjusted AUC, Wilcoxon rank-sum-test), “no statistically significant differences”. Moreover, the “median maintenance dose after dose titration to the lowest effective dose” value in series [1] (renal treated group (A), oral suspension) is recorded as 0.02 mg/kg daily; in series [2] (non-renal treated group (B), oral suspension), 0.02 mg/kg daily. Also, in series [2] (meloxicam treated no-CKD group (B) vs untreated no-CKD group), the progression of creatinine result was “no significant difference”. In addition, the “progression of renal parameters” value in series [2] (non-renal group treated with meloxicam (B) vs non-renal group not treated, median maintenance dose 0.02 mg/kg daily, median treatment duration 327 days) is recorded as “no differences”.

The values above are taken from patent US20110218191A1, “USE OF MELOXICAM FOR THE LONG TERM-TREATMENT OF KIDNEY DISORDERS IN CATS” (BOEHRINGER INGELHEIM VETMEDICA GMBH, priority 2010, published 2011).
